According to the NIST ThermoML archive (doi:10.1021/acs.jced.8b00979):

Assay: xn = mol fraction of the nth substance listed
Details: 100 kPa, Liquid; for viscosity: Capillary tube (Ostwald / Ubbelohde) method; for mass density: Vibrating tube method

CCCC(C)O (stereo not given) [pentan-2-ol] + CCCCCO
Details | mass density [kg/m3] | viscosity [mPa·s]
288.15 K, x2 = 0 | 813.34 | 5.057
288.15 K, x2 = 0.1 | 813.91 | 4.988
288.15 K, x2 = 0.2 | 814.5 | 4.929
288.15 K, x2 = 0.298 | 815.05 | 4.881
288.15 K, x2 = 0.4 | 815.6 | 4.842
288.15 K, x2 = 0.5 | 816.13 | 4.806
288.15 K, x2 = 0.601 | 816.66 | 4.772
288.15 K, x2 = 0.699 | 817.15 | 4.741
288.15 K, x2 = 0.798 | 817.63 | 4.714
288.15 K, x2 = 0.901 | 818.1 | 4.697
293.15 K, x2 = 0 | 809.38 | 4.174
293.15 K, x2 = 0.1 | 810 | 4.141
293.15 K, x2 = 0.2 | 810.63 | 4.114
293.15 K, x2 = 0.298 | 811.21 | 4.095
293.15 K, x2 = 0.4 | 811.79 | 4.079
293.15 K, x2 = 0.5 | 812.36 | 4.065
293.15 K, x2 = 0.601 | 812.92 | 4.054
293.15 K, x2 = 0.699 | 813.44 | 4.047
293.15 K, x2 = 0.798 | 813.95 | 4.045
293.15 K, x2 = 0.901 | 814.45 | 4.044
298.15 K, x2 = 0 | 805.35 | 3.398
298.15 K, x2 = 0.1 | 806.03 | 3.388
298.15 K, x2 = 0.2 | 806.7 | 3.382
298.15 K, x2 = 0.298 | 807.31 | 3.377
298.15 K, x2 = 0.4 | 807.93 | 3.373
298.15 K, x2 = 0.5 | 808.54 | 3.371
298.15 K, x2 = 0.601 | 809.14 | 3.377
298.15 K, x2 = 0.699 | 809.7 | 3.385
298.15 K, x2 = 0.798 | 810.24 | 3.402
298.15 K, x2 = 0.901 | 810.78 | 3.434
303.15 K, x2 = 0 | 801.24 | 2.82
303.15 K, x2 = 0.1 | 801.98 | 2.815
303.15 K, x2 = 0.2 | 802.7 | 2.815
303.15 K, x2 = 0.298 | 803.36 | 2.819
303.15 K, x2 = 0.4 | 804.02 | 2.833
303.15 K, x2 = 0.5 | 804.67 | 2.852
303.15 K, x2 = 0.601 | 805.32 | 2.875
303.15 K, x2 = 0.699 | 805.92 | 2.901
303.15 K, x2 = 0.798 | 806.5 | 2.932
303.15 K, x2 = 0.901 | 807.06 | 2.974
308.15 K, x2 = 0 | 797.05 | 2.336
308.15 K, x2 = 0.1 | 797.85 | 2.354
308.15 K, x2 = 0.2 | 798.63 | 2.373
308.15 K, x2 = 0.298 | 799.35 | 2.392
308.15 K, x2 = 0.4 | 800.06 | 2.416
308.15 K, x2 = 0.5 | 800.76 | 2.442
308.15 K, x2 = 0.601 | 801.45 | 2.472
308.15 K, x2 = 0.699 | 802.11 | 2.504
308.15 K, x2 = 0.798 | 802.74 | 2.54
308.15 K, x2 = 0.901 | 803.33 | 2.587
313.15 K, x2 = 0 | 792.78 | 1.99
313.15 K, x2 = 0.1 | 793.65 | 2.016
313.15 K, x2 = 0.2 | 794.49 | 2.039
313.15 K, x2 = 0.298 | 795.28 | 2.063
313.15 K, x2 = 0.4 | 796.05 | 2.09
313.15 K, x2 = 0.5 | 796.8 | 2.119
313.15 K, x2 = 0.601 | 797.54 | 2.152
313.15 K, x2 = 0.699 | 798.25 | 2.188
313.15 K, x2 = 0.798 | 798.92 | 2.226
313.15 K, x2 = 0.901 | 799.56 | 2.272
318.15 K, x2 = 0 | 788.42 | 1.706
318.15 K, x2 = 0.1 | 789.37 | 1.726
318.15 K, x2 = 0.2 | 790.29 | 1.751
318.15 K, x2 = 0.298 | 791.13 | 1.778
318.15 K, x2 = 0.4 | 791.96 | 1.809
318.15 K, x2 = 0.5 | 792.77 | 1.842
318.15 K, x2 = 0.601 | 793.58 | 1.878
318.15 K, x2 = 0.699 | 794.34 | 1.916
318.15 K, x2 = 0.798 | 795.06 | 1.956
318.15 K, x2 = 0.901 | 795.75 | 1.997
323.15 K, x2 = 0 | 783.99 | 1.472
323.15 K, x2 = 0.1 | 785.02 | 1.498
323.15 K, x2 = 0.2 | 786.01 | 1.522
323.15 K, x2 = 0.298 | 786.92 | 1.546
323.15 K, x2 = 0.4 | 787.82 | 1.575
323.15 K, x2 = 0.5 | 788.69 | 1.607
323.15 K, x2 = 0.601 | 789.56 | 1.642
323.15 K, x2 = 0.699 | 790.38 | 1.679
323.15 K, x2 = 0.798 | 791.17 | 1.718
323.15 K, x2 = 0.901 | 791.88 | 1.762
328.15 K, x2 = 0 | 779.46 | 1.306
328.15 K, x2 = 0.1 | 780.57 | 1.317
328.15 K, x2 = 0.2 | 781.64 | 1.335
328.15 K, x2 = 0.298 | 782.65 | 1.359
328.15 K, x2 = 0.4 | 783.63 | 1.387
328.15 K, x2 = 0.5 | 784.57 | 1.418
328.15 K, x2 = 0.601 | 785.5 | 1.45
328.15 K, x2 = 0.699 | 786.38 | 1.486
328.15 K, x2 = 0.798 | 787.22 | 1.524
328.15 K, x2 = 0.901 | 787.98 | 1.564

CCC(C)CO (stereo not given) [2-methyl-1-butanol] + CCCCCO
Details | mass density [kg/m3] | viscosity [mPa·s]
288.15 K, x2 = 0 | 823.35 | 6.439
288.15 K, x2 = 0.1 | 822.86 | 6.245
288.15 K, x2 = 0.2 | 822.37 | 6.036
288.15 K, x2 = 0.3 | 821.88 | 5.819
288.15 K, x2 = 0.399 | 821.4 | 5.595
288.15 K, x2 = 0.5 | 820.92 | 5.361
288.15 K, x2 = 0.6 | 820.44 | 5.128
288.15 K, x2 = 0.699 | 819.96 | 4.916
288.15 K, x2 = 0.799 | 819.5 | 4.741
288.15 K, x2 = 0.899 | 819.03 | 4.697
293.15 K, x2 = 0 | 819.64 | 5.3
293.15 K, x2 = 0.1 | 819.15 | 5.146
293.15 K, x2 = 0.2 | 818.66 | 4.998
293.15 K, x2 = 0.3 | 818.19 | 4.837
293.15 K, x2 = 0.399 | 817.71 | 4.677
293.15 K, x2 = 0.5 | 817.24 | 4.516
293.15 K, x2 = 0.6 | 816.77 | 4.362
293.15 K, x2 = 0.699 | 816.3 | 4.196
293.15 K, x2 = 0.799 | 815.84 | 4.062
293.15 K, x2 = 0.899 | 815.38 | 4.046
298.15 K, x2 = 0 | 815.85 | 4.501
298.15 K, x2 = 0.1 | 815.37 | 4.383
298.15 K, x2 = 0.2 | 814.9 | 4.255
298.15 K, x2 = 0.3 | 814.43 | 4.129
298.15 K, x2 = 0.399 | 813.97 | 3.988
298.15 K, x2 = 0.5 | 813.51 | 3.848
298.15 K, x2 = 0.6 | 813.05 | 3.72
298.15 K, x2 = 0.699 | 812.6 | 3.604
298.15 K, x2 = 0.799 | 812.15 | 3.507
298.15 K, x2 = 0.899 | 811.7 | 3.489
303.15 K, x2 = 0 | 812.12 | 3.825
303.15 K, x2 = 0.1 | 811.64 | 3.725
303.15 K, x2 = 0.2 | 811.17 | 3.63
303.15 K, x2 = 0.3 | 810.71 | 3.518
303.15 K, x2 = 0.399 | 810.26 | 3.402
303.15 K, x2 = 0.5 | 809.8 | 3.287
303.15 K, x2 = 0.6 | 809.34 | 3.197
303.15 K, x2 = 0.699 | 808.89 | 3.114
303.15 K, x2 = 0.799 | 808.45 | 3.051
303.15 K, x2 = 0.899 | 808 | 3.018
308.15 K, x2 = 0 | 808.29 | 3.265
308.15 K, x2 = 0.1 | 807.82 | 3.176
308.15 K, x2 = 0.2 | 807.36 | 3.099
308.15 K, x2 = 0.3 | 806.92 | 3.007
308.15 K, x2 = 0.399 | 806.47 | 2.921
308.15 K, x2 = 0.5 | 806.03 | 2.831
308.15 K, x2 = 0.6 | 805.58 | 2.765
308.15 K, x2 = 0.699 | 805.15 | 2.701
308.15 K, x2 = 0.799 | 804.71 | 2.66
308.15 K, x2 = 0.899 | 804.28 | 2.648
313.15 K, x2 = 0 | 804.41 | 2.783
313.15 K, x2 = 0.1 | 803.95 | 2.717
313.15 K, x2 = 0.2 | 803.51 | 2.657
313.15 K, x2 = 0.3 | 803.07 | 2.59
313.15 K, x2 = 0.399 | 802.64 | 2.528
313.15 K, x2 = 0.5 | 802.21 | 2.468
313.15 K, x2 = 0.6 | 801.78 | 2.419
313.15 K, x2 = 0.699 | 801.35 | 2.365
313.15 K, x2 = 0.799 | 800.93 | 2.327
313.15 K, x2 = 0.899 | 800.51 | 2.323
318.15 K, x2 = 0 | 800.47 | 2.379
318.15 K, x2 = 0.1 | 800.02 | 2.329
318.15 K, x2 = 0.2 | 799.6 | 2.281
318.15 K, x2 = 0.3 | 799.18 | 2.232
318.15 K, x2 = 0.399 | 798.76 | 2.187
318.15 K, x2 = 0.5 | 798.34 | 2.141
318.15 K, x2 = 0.6 | 797.93 | 2.103
318.15 K, x2 = 0.699 | 797.52 | 2.07
318.15 K, x2 = 0.799 | 797.11 | 2.041
318.15 K, x2 = 0.899 | 796.7 | 2.028
323.15 K, x2 = 0 | 796.47 | 2.06
323.15 K, x2 = 0.1 | 796.04 | 2.016
323.15 K, x2 = 0.2 | 795.63 | 1.98
323.15 K, x2 = 0.3 | 795.22 | 1.942
323.15 K, x2 = 0.399 | 794.82 | 1.908
323.15 K, x2 = 0.5 | 794.42 | 1.877
323.15 K, x2 = 0.6 | 794.02 | 1.85
323.15 K, x2 = 0.699 | 793.63 | 1.823
323.15 K, x2 = 0.799 | 793.24 | 1.801
323.15 K, x2 = 0.899 | 792.85 | 1.791
328.15 K, x2 = 0 | 792.41 | 1.787
328.15 K, x2 = 0.1 | 792 | 1.753
328.15 K, x2 = 0.2 | 791.6 | 1.725
328.15 K, x2 = 0.3 | 791.22 | 1.697
328.15 K, x2 = 0.399 | 790.84 | 1.669
328.15 K, x2 = 0.5 | 790.46 | 1.645
328.15 K, x2 = 0.6 | 790.08 | 1.624
328.15 K, x2 = 0.699 | 789.7 | 1.609
328.15 K, x2 = 0.799 | 789.33 | 1.598
328.15 K, x2 = 0.899 | 788.96 | 1.594
